Data set [1] has as its target Phosphatidylinositol 4,5-bisphosphate 3-kinase catalytic subunit alpha isoform (Homo sapiens, UniProt P42336). Put plainly: Inhibition of recombinant PI3Kalpha (unknown origin) using PIP2:3PS as substrate preincubated for 20 mins followed by ATP addition and measured after 1 hrs by ADP-Glo reagent based assay.
Data set [2] deals with Phosphatidylinositol 4,5-bisphosphate 3-kinase catalytic subunit beta isoform (Homo sapiens, UniProt P42338). Put plainly: Inhibition of recombinant PI3Kbeta (unknown origin) using PIP2:3PS as substrate preincubated for 20 mins followed by ATP addition and measured after 1 hrs by ADP-Glo reagent based assay. Background: ADP-Glo turns the ADP formed in a reaction into a luminescent signal.
Sequence of Phosphatidylinositol 4,5-bisphosphate 3-kinase catalytic subunit beta isoform (P42338 whole entry, canonical isoform): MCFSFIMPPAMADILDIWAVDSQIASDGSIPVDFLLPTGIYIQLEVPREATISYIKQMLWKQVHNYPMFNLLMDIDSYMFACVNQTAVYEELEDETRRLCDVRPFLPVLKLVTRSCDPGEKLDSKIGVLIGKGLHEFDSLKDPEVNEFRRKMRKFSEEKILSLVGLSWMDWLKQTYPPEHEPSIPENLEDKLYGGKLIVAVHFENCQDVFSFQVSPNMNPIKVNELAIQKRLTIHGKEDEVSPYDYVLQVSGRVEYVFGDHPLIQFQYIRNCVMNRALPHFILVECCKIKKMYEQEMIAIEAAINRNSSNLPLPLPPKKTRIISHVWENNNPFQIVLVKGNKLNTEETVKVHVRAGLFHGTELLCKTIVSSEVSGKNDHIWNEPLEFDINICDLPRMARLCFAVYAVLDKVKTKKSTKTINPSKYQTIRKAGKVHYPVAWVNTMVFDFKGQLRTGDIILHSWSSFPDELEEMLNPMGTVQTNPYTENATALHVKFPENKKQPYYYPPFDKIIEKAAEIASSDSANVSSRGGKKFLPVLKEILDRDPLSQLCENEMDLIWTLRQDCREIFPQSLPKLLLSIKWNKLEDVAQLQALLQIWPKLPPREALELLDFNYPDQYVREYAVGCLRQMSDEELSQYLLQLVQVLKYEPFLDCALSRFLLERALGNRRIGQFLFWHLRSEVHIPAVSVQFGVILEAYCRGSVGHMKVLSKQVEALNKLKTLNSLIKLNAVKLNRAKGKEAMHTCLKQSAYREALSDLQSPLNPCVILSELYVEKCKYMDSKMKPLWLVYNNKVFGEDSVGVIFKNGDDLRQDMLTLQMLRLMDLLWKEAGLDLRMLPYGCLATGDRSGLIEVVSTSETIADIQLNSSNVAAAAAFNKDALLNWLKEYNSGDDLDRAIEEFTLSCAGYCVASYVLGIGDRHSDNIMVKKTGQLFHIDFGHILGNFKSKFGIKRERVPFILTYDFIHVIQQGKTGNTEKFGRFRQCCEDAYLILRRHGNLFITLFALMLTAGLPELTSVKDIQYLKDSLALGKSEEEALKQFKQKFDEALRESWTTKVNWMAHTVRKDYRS

For a further data set, the system named is MCF7. Put plainly: Growth inhibition of human MCF7 cells incubated for 72 hrs by MTT assay. It counts as functional. On the technique in general: Tetrazolium dyes change colour on reduction, which living cells bring about.
Data set [3] in a line: Toxicity in male nude mouse xenografted with human Pfeiffer cells assessed as change in body weight at 5 to 30 mg/kg/day, po administered for 14 days. It counts as organism-based. The note with it: in vivo, 336 h, dose 5-30 mg/kg/day, time 14 day. On the technique in general: Xenograft models place foreign cells or tissue in a host animal.

The text below walks through data of ChEMBL document CHEMBL6127139, “Lysine-Targeted Covalent Inhibitors of PI3Kδ Synthesis and Screening by In Situ Interaction Upgradation” (J Med Chem, 2024).

Structures are written as SMILES. Some results are limits rather than exact numbers.

Sequence of Phosphatidylinositol 4,5-bisphosphate 3-kinase catalytic subunit alpha isoform (P42336 whole entry, canonical isoform): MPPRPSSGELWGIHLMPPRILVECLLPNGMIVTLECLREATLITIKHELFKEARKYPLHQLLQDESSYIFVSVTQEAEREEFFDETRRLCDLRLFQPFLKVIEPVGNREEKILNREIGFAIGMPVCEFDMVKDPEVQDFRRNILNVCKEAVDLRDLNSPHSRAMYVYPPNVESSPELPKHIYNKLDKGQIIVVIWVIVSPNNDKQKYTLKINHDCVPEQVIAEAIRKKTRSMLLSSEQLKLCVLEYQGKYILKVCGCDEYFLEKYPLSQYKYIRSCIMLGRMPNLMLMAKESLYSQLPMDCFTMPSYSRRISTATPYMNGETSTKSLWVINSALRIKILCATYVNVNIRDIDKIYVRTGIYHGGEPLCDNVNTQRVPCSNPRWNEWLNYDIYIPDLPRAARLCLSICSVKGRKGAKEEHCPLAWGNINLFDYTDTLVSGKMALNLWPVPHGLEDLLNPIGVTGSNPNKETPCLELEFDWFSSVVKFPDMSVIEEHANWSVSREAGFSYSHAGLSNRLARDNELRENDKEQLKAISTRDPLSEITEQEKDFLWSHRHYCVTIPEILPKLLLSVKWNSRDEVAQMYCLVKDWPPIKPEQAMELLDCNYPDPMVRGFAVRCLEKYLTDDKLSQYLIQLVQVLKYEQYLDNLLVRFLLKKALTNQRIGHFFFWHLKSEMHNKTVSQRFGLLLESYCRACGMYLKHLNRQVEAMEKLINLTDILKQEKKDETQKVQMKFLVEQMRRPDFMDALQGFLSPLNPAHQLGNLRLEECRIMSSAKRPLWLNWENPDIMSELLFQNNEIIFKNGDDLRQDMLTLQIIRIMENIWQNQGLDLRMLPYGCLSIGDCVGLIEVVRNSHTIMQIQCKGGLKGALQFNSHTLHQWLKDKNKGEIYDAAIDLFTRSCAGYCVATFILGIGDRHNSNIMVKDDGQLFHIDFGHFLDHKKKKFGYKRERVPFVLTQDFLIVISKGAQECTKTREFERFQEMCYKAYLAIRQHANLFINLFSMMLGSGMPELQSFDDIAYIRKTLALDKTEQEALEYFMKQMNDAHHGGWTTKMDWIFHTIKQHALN

What is called IC50 is the concentration at which inhibition is half-maximal. Broadly, the GI50 is the concentration giving 50% growth inhibition. A lower GI50 goes with more potent growth inhibition. As to `COc1ncc(-c2ccc3ncnc(N[C@H]4CCN(C(=O)C5CCOCC5)C4)c3n2)cc1C(=O)Oc1ccccc1`, the values for the IC50 in data set [1] and in data set [2] were 610 nM and 203 nM, respectively. This compound registered a concentration for 50% growth inhibition (GI50) in the data set with MCF7 greater than 10000 nM. In addition, the Activity entry in data set [3] is “Non-Toxic”.
